The test system of data set [1] is sCLU secreted from human U-87 MG glioblastoma cells. In words: Human sCLU AlphaLISA on supernatant of U-87 MG cells (HTS, re-test, dose response). Type of data set: cell-based. The note with it: U-87 MG cells; for EC50: Homo sapiens. The protocol:
Cell culture supernatant (2 μL) was added to a 384-well proxy plate preloaded with AlphaLISA HiBlock buffer (2 µL, 1X, CAT#AL004C, Perkin Elmer). Then an anti-sCLU antibody mixture (2 µL, mAb J84, biotinylated (10 nM, Cat# 3717-6-1000, Mabtech) and mAb CLU aa 22-227 (Cat#AF7084, R&D Systems), Acceptor bead conjugated (50 µg/mL, Cat#6772001, Perkin Elmer)) was added and incubated at room temperature for 1 hour. AlphaScreen Streptavidin Donor beads (2 µL, Cat#6760002S, Perkin Elmer) were added, incubated for an additional 30 min in the dark, and the plate was read in an Envision plate reader.
Human glioblastoma U-87 MG cells were proliferated in EMEM with 10% FBS and 1% P/S (complete medium) in 10 cm dishes until approximately 90% confluent. Following trypsinization, a suspension of 2 × 10^5 cells/mL (25 µL) were added to 384-well plates containing complete medium (25 µL) and library compounds from 9 plates (5 µM). After incubation for 30 h at 37 °C and 5% CO2, 2 μL of cell culture supernatant were analyzed via human sCLU AlphaLISA as described above. Cell culture medium and cells were added to the 384-well plates using the MultiDrop. The BioMek FX was used to pin the drugs and transfer the cell culture supernatant. The MANTIS liquid handler was used to added human sCLU AlphaLISA reagents.
Human glioblastoma U-87 MG cells were proliferated in EMEM with 10% FBS and 1% P/S (complete medium) in 10 cm dishes until approximately 90% confluent. […] After incubation for 30 hours at 37 °C and 5% CO2, 2 μL of cell culture supernatant were analyzed via human sCLU AlphaLISA as described above.

Data set [2] concerns nCLU levels in U-87 MG cells. In words: nCLU levels in U-87 MG cells. The note with it: 5 µM. The class given is cell-based, human.
The nature of a further data set: Kinetic solubility. Type of data set: physicochemical. As to conditions: aqueous buffer, kinetic from dmso stock, PBS pH 7.4, 37 °C, 100 µM nominal. The protocol:
Test compound (10 mM, 100% DMSO) was diluted separately into aqueous buffer (100 µM; PBS pH 7.4) and DMSO at various concentrations (1000, 100, 10, 1, 0.1 µM). The solutions were then incubated at 37 °C for 90 min and centrifuged (16000xg, 5 min). An aliquot of each supernatant was analyzed by UV/Vis (if possible) or LC-MS/MS. A standard curve was made by plotting the known amount of analyte per standard in DMSO vs. absorbance or chromatographic peak area. Kinetic solubility (mM) was calculated using the trendline equation with maximum absorbance or chromatographic peak area observed in the aqueous sample.

Data set [3] can be described thus: Liver microsome stability assay. The note with it: pH 7.4; human liver microsomes 0.5 mg/mL, NADPH, 37 °C, up to 120 min; read-out: Microsomal Stability t1/2. Type of data set: in vitro ADME. The protocol: An aliquot (1 µL) of test compound (1 mM, 100% DMSO) was added to an aqueous liver microsome solution (1000 µL, PBS pH 7.4, 0.5 mg/mL human liver microsomes (Thermo Fisher Scientific, Cat#HMMPL), 2 mM NADPH, 2 mM MgCl2) and incubated at 37 °C for 120 min. Aliquots (50 µL) of the microsome solution were taken at various time points (0, 5, 10, 15, 30, 60, 90, 120 min) and added to a reaction quenching solution (200 µL 100% Acetonitrile) containing an internal standard. Solutions were clarified by centrifugation (16,000 x g, 5 min), and the supernatants were transferred to new tubes and lyophilized. Samples were reconstituted in 100 µL of 50/50/0.1 (Water/Acetonitrile/Formic Acid) prior to analysis via liquid chromatography-tandem mass spectrometry (LC-MS/MS). Chromatographic peak areas normalized to the internal standard were plotted at each time point and the half-life (t1/2) of compound in liver microsomes was determined by using the trendline equation to calculate the time at which compound abundance was 50% of that at time point 0 (t0).
For orientation: Liver microsomes are vesicles of endoplasmic reticulum, rich in cytochrome P450 enzymes.

A short description of data set [4]: Plasma binding assay (dialysis). The class given is in vitro ADME. The note with it: dialysis 4.5 hours, 37 °C. The protocol:
(§1) Brain tissue was homogenized in PBS (pH 7.4) (1: 3 weight(mg)/volume(µL)) and the protein concentration was determined using the Micro BCA™ Protein Assay Kit (Thermo Fisher Scientific, Cat#23235). Brain homogenate was clarified and diluted to 20 mg/mL in PBS (pH 7.4). Either brain homogenate or plasma was and added to Slide-A-Lyzer™ MINI Dialysis Devices, 10 K MWCO dialysis cups (Thermo Fisher Scientific, Cat#PI88401) in a 48-well plate containing PBS (500 µL; pH 7.4). 1 µL of 1 mM compound was added to the brain homogenate (Final Concentration: 2 µM compound, 0.5% DMSO) and incubated on a rocker for 4.5 hours at 37 °C. 50 µL of brain homogenate or plasma (within the dialysis cup) and PBS (within the 48-well plate) were transferred to new microcentrifuge tubes containing 400 µL of quenching reagent (100% Acetonitrile) containing internal standard. Solutions were clarified by centrifugation (16,000 x g, 5 min), and the supernatants were transferred to new tubes and lyophilized. Samples were reconstituted in 100 µL of 50/50/0.1 (Water/Acetonitrile/Formic Acid) prior to analysis via liquid chromatography-tandem mass spectrometry (LC-MS/MS). The % of the unbound drug (fu,bound) was calculated using the following equation:
(§2) % Bound = [1− (PBS chromatographic peak area/ brain homogenate or plasma chromatographic peak area)] x 100

A short description of data set [5]: Brain tissue binding assay (dialysis). The note with it: brain homogenate 20 mg/mL, 2 µM compound, dialysis 4.5 hours, 37 °C. Type of data set: in vitro ADME. The method, then: as §1, §2
Data set [6] can be described thus: Blood-Brain Barrier (BBB) permeability assay (IAM column, Pm). The class given is in vitro ADME. As to conditions: pH 7.4; Pm > 1.0 = CNS+. The protocol: A liquid chromatography-ultraviolet/visible spectroscopy (LC-UV/Vis) assay was performed on a 1290 Infinity HPLC system (Agilent Technologies) with an HPLC column containing immobilized phosphatidylcholine (IAM.PC.DD, Regis Technologies, Cat#774011, 5 µm 300 Å 100 ×4.6 mm). The HPLC method was a mixture of 6.7 mM phosphate buffer saline (pH 7.4; solvent A) and acetonitrile (solvent B), and a gradient was used for the elution of the compounds (min/%B: 0/20, 20/60, 21/20, 30/20). The retention time of the compound (tr) and void volume time of the column (t0) were recorded. Blood-brain barrier (BBB) permeability (Pm) was calculated using the following equations as described by Yoon et al. (10.1177/1087057105281656):
KIAM = (tr − t0) / t0; Pm = (KIAM / MW^4) x 10^10
Compounds with a Pm > 1.0 were determined to be BBB permeable (CNS + ) at pH 7.

The test system of another data set is U-87 MG cells. In words: Cytotoxicity, MultiTox-Fluor (CNS gliotoxicity). As to conditions: U-87 MG cells, dose response (Fig. 2F). The source says:
Cell viability and toxicity were simultaneously assessed using the MultiTox-Fluor Multiplex Cytotoxicity Assay (Cat# PRG9200, Fisher Scientific) according to the manufacturer’s protocol.

SMILES strings stand for the structures. Values after ≈ are worked out from the molar mass of the structure shown. Read-outs that look alike come from different tables or passages of the source.

Turning to `Cc1sc2c(c1C)C(c1ccc(Cl)cc1)=N[C@@H](CC(=O)OC(C)(C)C)c1nnc(C)n1-2` [(+)-JQ1, reference compound], in data set [1] (30 h, AlphaLISA of supernatant, read-out: EC50 for sCLU increase), the 50% effective concentration (EC50) stood at 0.313 µM. For the same compound, the nCLU levels entry in data set [2] was “not affecting nCLU levels”. In “Kinetic solubility”, this compound gave a solubility (kinetic) at 90 min of 86.5 µM (≈ 39.5 µg/mL). Besides, in data set [3], the half-life at 1 µM was 27 min. In addition, the “Plasma Binding” value in data set [4] turned out to be 85 % bound. In data set [5], the “Brain Tissue Binding” value is on record as 87 % bound. Moreover, the “PAMPA Pm” value in data set [6] worked out at 1.44.

Turning to `O=C(/C=C/c1cccc(S(=O)(=O)Nc2ccccc2)c1)NO` [belinostat], the EC50 in data set [1] (dose response, text and figures, read-out: sCLU EC50) amounted to 1.12 µM. Besides, the “sCLU levels relative to DMSO control” value in data set [1] (5 µM) is given as “increased sCLU”. Moreover, the nCLU levels entry in data set [2] is “not affecting nCLU levels”. The “cytotoxicity, comparison in words” value in the data set with U-87 MG cells was “significant differences between belinostat and the BET inhibitors at the highest concentrations tested”.

By EC50 is commonly meant the midpoint of the concentration-response curve. As usually defined, the kinetic solubility is solubility judged after dilution from a stock solution rather than from solid.

Source of the values: PMC12048343, “Discovery of a small molecule secreted clusterin enhancer that improves memory in Alzheimer’s disease mice” (npj Drug Discovery, 2025).
